Experimental data taken from EPA's ToxValDB 9.5.

What was measured:
Canidae = settings: subchronic; duration: 90 days; oral; capsule / gavage; M/F; Beagle; Protruding nictitating membranes, dilated pupils, eye redness and decreased indirect pupillary light response
Rattus norvegicus [1] = settings: oral
Rattus norvegicus [2] = settings: oral; remark: listed apart in the source
Oryctolagus sp. = settings: acute, dermal
Rattus norvegicus [3] = system: Rattus norvegicus
Rattus norvegicus [4] = settings: oral; for NOAEL: M/F
Rattus norvegicus [5] = settings: oral; remark: listed apart in the source
Rattus norvegicus [6] = settings: subchronic; duration: 13 weeks; oral; drinking water; M/F; Sprague-Dawley; metabolic
Mus musculus = settings: short-term; duration: 14 days; oral; drinking water; M/F; B6C3F1; hepatic
Rattus norvegicus [7] = settings: Hershberger; duration: 10 days; oral; gavage; Sprague-Dawley; inactive + Negative + Negative + neither + negative
[8] = subchronic, duration: 90 days, diet, Sprague-Dawley
[9] = developmental, oral, F, reduced delayed hypersensitivity response
[10] = reproduction developmental, Long-Evans, Micromelia, ectromelia, curved femur and microfetalis
[11] = chronic, duration: 2 years, drinking water, M/F, Long-Evans, Whole Body Effects
[12] = chronic, duration: 2 years, oral, diet, M/F, reduced body weight (males), inflammatory foci in kidneys of females
[13] = chronic, oral, M/F, reduced body weight
[14] = subchronic, duration: 90 days, inhalation, M/F, nasal turbinates

SMILES: CN1C(=O)[C@]23C[C@H]4C(C)(C)[C@]5(CNc6c5ccc5c6OC=CC(C)(C)O5)C[C@@]41CN2CC[C@@]3(C)O
- LOAEL (Canidae): 0.1 mg/kg-day

SMILES: Clc1cccc(Cl)c1Cl [1,2,3-Trichlorobenzene]
- NOAEL (Rattus norvegicus [1]; subchronic, duration: 13 weeks, diet, M, Sprague-Dawley, Whole Body Effects, Hepatic): 7.7 mg/kg-day
- NOAEL (Rattus norvegicus [2]; developmental, duration: 10 days, gavage, Sprague-Dawley): 600 mg/kg-day
- NOAEL (Rattus norvegicus [2]; reproduction developmental, duration: 10 days, gavage, F, Sprague-Dawley): 150 mg/kg-day
- LOAEL (Rattus norvegicus [2]; [8]): 96 mg/kg-day
- NOAEL (Rattus norvegicus [2]; [8]): 9.6 mg/kg-day

SMILES: FC(F)(F)c1ccc(Cl)c(Cl)c1 [1,2-Dichloro-4-(trifluoromethyl)benzene]
- NOAEL (Rattus norvegicus [1]; short-term, duration: 14 days, gavage, M/F, Albino CD): 60 mg/kg-day
- LD50 (Rattus norvegicus [2]; acute, CF Nelson): 1150 mg/kg
- NOAEL (Rattus norvegicus [2]; short-term, duration: 28 days, diet, Sprague-Dawley): 20 ppm
- LD50 (Oryctolagus sp.): > 5000 mg/kg
- LD50 (Oryctolagus sp.; occlusive): 5000 mg/kg

SMILES: Oc1ccc(Cl)cc1Cl [2,4-Dichlorophenol]
- LOAEL (Rattus norvegicus [3]; [9]): 3 mg/kg-day
- NOEL (Rattus norvegicus [3]; [9]): 0.3 mg/kg-day
- NOAEL (Rattus norvegicus [4]; subchronic, duration: 90 days, diet, Fischer 344, Clinical Observation: Hunched posture Rough hair coats + Body Weight Changes: decrease + Food Consumption: decrease, (palatability decrease…): 480 mg/kg-day
- LOAEL (Rattus norvegicus [1]; subchronic, duration: 13 weeks, drinking water, M/F, Sprague-Dawley, Whole Body Effects): 3 mg/kg-day

SMILES: O=[N+]([O-])c1cc(C(F)(F)F)ccc1Cl [4-Chloro-3-nitrobenzotrifluoride]
- LOAEL (Rattus norvegicus [1]; short-term, duration: 28 days, gavage, M, Sprague-Dawley): 1 mg/kg-day

SMILES: CC(=O)c1ccccc1 [Acetophenone]
- NOAEL (Rattus norvegicus [3]; subchronic, oral, M/F, general toxicity): 423 mg/kg-day
- NOAEL (Rattus norvegicus [1]; reproduction developmental, gavage, M/F, Sprague-Dawley): 225 mg/kg-day

SMILES: CCCSc1ccc2nc(NC(=O)OC)[nH]c2c1 [Albendazole]
- LOEL (Rattus norvegicus [5]; [10]): 10 mg/kg-day
- NOEL (Rattus norvegicus [5]; [10]): 5 mg/kg-day

SMILES: [Cl][Sb]([Cl])[Cl] [Antimony trichloride]
- LOAEL (Rattus norvegicus [1]; [11]): 0.35 mg/kg-day

SMILES: [Sb] [Antimony]
- LOAEL (Rattus norvegicus [3]; chronic, oral, M/F, longevity, blood glucose, and cholesterol): 0.35 mg/kg-day
- LOAEL (Rattus norvegicus [1]; [11]): 0.35 mg/kg-day
- NOAEL (Rattus norvegicus [6]): 0.06 mg/kg-day
- NOAEL (Mus musculus): 99 mg/kg-day

SMILES: COC[C@H]1O[C@@H](OC2OC[C@@H]3O[C@]4(O[C@H]3[C@H]2OC(=O)C(C)C)O[C@H](C)[C@@](O)(C(C)=O)[C@@H]2OCO[C@H]24)[C@@H](OC)[C@@H](O)[C@@H]1O[C@@H]1O[C@H](C)[C@H](OC)[C@H](O[C@H]2C[C@@]3(C)OC4(C[C@@H](O)[C@H](O[C@H]5C[C@@H](O)[C@H](OC(=O)c6c(C)c(Cl)c(O)c(Cl)c6OC)[C@@H](C)O5)[C@@H](C)O4)O[C@@H]3[C@@H](C)O2)[C@H]1O (stereo not given in full) [Avilamycin]
- NOEL (Rattus norvegicus [5]; reproduction developmental, duration: 2 years, diet, M/F, Sprague-Dawley, no effects): 150 mg/kg-day

SMILES: CC1(C)C(C=C(Cl)Cl)C1C(=O)OC(C#N)c1ccc(F)c(Oc2ccccc2)c1 (stereo not given) [Cyfluthrin]
- NOEL (Rattus norvegicus [5]; chronic, duration: 2 years, diet, M/F, Wistar, Depressed bodyweight gain): 2 mg/kg-day
- NOEL (Rattus norvegicus [5]; dietary / carcinogenicity, duration: 2 years, feed, M/F, Wistar, Depressed bodyweight gain): 2 mg/kg-day
- NOEL (Rattus norvegicus [7]): 20 mg/kg-day
- LEL (Rattus norvegicus [3]; [12]): 7.5 mg/kg-day
- NOEL (Rattus norvegicus [3]; [12]): 2.5 mg/kg-day

SMILES: c1ccc2c(c1)oc1ccccc12 [Dibenzofuran]
- NOEL (Rattus norvegicus [4]; short-term, duration: 28 days, gavage, F, Sprague-Dawley, Clinical Observation: Locomotor activity decrease, Salivation Soiled perineal region + Body Weight Changes: decrease + Urinalysis: Volume …): 40 mg/kg-day
- NOAEL (Rattus norvegicus [4]; short-term, duration: 28 days, gavage, Sprague-Dawley, Clinical Observation: Locomotor activity decrease, Salivation Soiled perineal region + Body Weight Changes: decrease + Urinalysis: Volume …): 40 mg/kg-day
- LOAEL (Rattus norvegicus [1]; chronic, duration: 200 days, diet, F, albino, Whole Body Effects): 12.3 mg/kg-day

SMILES: FC(F)(Cl)Cl [Dichlorodifluoromethane]
- LOAEL (Rattus norvegicus [3]; [13]): 150 mg/kg-day
- NOAEL (Rattus norvegicus [3]; [13]): 15 mg/kg-day
- NOAEL (Rattus norvegicus [1]; chronic, duration: 2 years, gavage, M/F, Crl:CD(SD), Whole Body Effects): 15 mg/kg-day

SMILES: ClCC1CO1 (stereo not given) [Epichlorohydrin]
- LOAEL (Rattus norvegicus [3]; [14]): 95 mg/m3
- NOAEL (Rattus norvegicus [3]; [14]): 19 mg/m3
- LOAEL (Rattus norvegicus [1]; reproduction developmental, duration: 23 days, gavage, M, Long-Evans, reproductive): 6.25 mg/kg-day
